# Assay results reported in US20230000876A1, “TREATING CANCERS WITH A CYCLIN-DEPENDENT KINASE INHIBITOR” (Nuvation Bio Inc., priority 2021, published 2023).
# What was measured:
# MOLT-4-luc = assay: CellTiter-Glo anti-proliferation assay, MOLT-4-luc; format: cell-based
# Protocol: The anti-proliferation effect of 2 compounds (the compound of formula (I) and temozolomide) in 7 CNS metastasis cell lines (MOLT-4-luc, Nalm-6-luc, NCI-H460-luc, ACHN-luc2, PC-9-luc, H1975-luc, and KM12-luc) was evaluated.
# The plating of cells and compound treatments are shown below in the plate map (Table 12). One plate was needed for the test of 2 compounds (the compound of formula (I) and temozolomide) in one cell line. The compound of formula (I) was tested from 10 μM, 3-fold serial dilution. Temozolomide was tested from 100 μM, 3-fold serial dilution.
# All the cell lines were maintained in culture conditions at 37° C. in an atmosphere with 5% CO2 in air. The tumor cells were routinely subcultured. The cells growing in an exponential growth phase were harvested and counted for plating.
# Cells were counted by haemocytometer with Trypan blue staining. Next, 135 μL of cell suspension were plated into the assay plates according to the plate map and 135 μL of assay medium into the blank wells. The plates were incubated at 37° C., 5% CO2, 95% air and 100% relative humidity overnight.
# 4.4.4 Compound Plate (10×) Preparation and Compound Treatment • 10× concentrate compound plate preparation: Add 198 μL of assay medium into each well of the V-bottom plate; then transfer 2 μL of the stock compound solution of each concentration from the stock plate. Add 2 μL of DMSO into the Blank and Control wells. Pipette up and down to mix well. This V-plate is designated as the 10× concentrate compound plate. • For day 0 plate, add 15 μL of the DMSO-medium into the Control wells. The final DMSO concentration was 0.1%. Then directly proceed to cell viability assay. • For assay plate, add 15 μL of the compound-medium of each well from the 10× concentrate compound plate into the cells in 96-well assay plate according to the plate map. Add 15 μL of the DMSO-medium into the Blank and Control wells. The final DMSO concentration was 0.1%. • Return the assay plate into incubator and incubate for 6 days.
# The procedures were performed according to the Promega CellTiter-Glo Luminescent Cell Viability Assay Kit manual (Promega-G7573). • The CellTiter-Glo buffer was thawed and equilibrated to room temperature prior to use. • CellTiter-Glo Substrate was equilibrated to room temperature prior to use. • The entire liquid volume of CellTiter-Glo Buffer was transferred into the amber bottle containing CellTiter-Glo Substrate to reconstitute the lyophilized enzyme/substrate mixture. This forms the CellTiter-Glo Reagent. • The contents were mixed by gently vortexing to obtain a homogeneous solution. • The plate was equilibrated and its contents to room temperature for approximately 30 minutes. 75 μL (equal to the half volume of culture medium present in each well) CellTiter-Glo • Reagent was added in each well. Plates were covered with aluminum foil to protect from light. • The contents were mixed for 2 minutes on an orbital shaker to induce cell lysis. • The plate was incubated at room temperature for 20 minutes to stabilize luminescent signal. • Record luminescence on the 2104 EnVision plate reader.
# Inhibition rate (IR) of the tested compounds was determined by the following formula: IR (%)=(1−(RLU compound−RLU day0)/(RLU control−RLU day0))*100%. The inhibitions of different dose of compound were calculated in Excel file, and then were used to plot inhibition curves and evaluate related parameters, such as Min (%), Max (%) and GI50. The data were interpreted by GraphPad Prism.
# xMDA-MB-361 breast tumor = xMDA-MB-361 breast tumor model (ER-positive/HER2-positive); format: in vivo, female BALB/c nude mice; conditions: Group 5: Compound (I) 30 mg/kg PO QD*42 days
# Protocol: Trastuzumab, tucatinib, Compound (I), and fulvestrant were tested in a xMDA-MB-361 breast tumor model (ER-positive/HER2-positive) on female BALB/c nude mice.
# [1] = inhibition rate, 6 days, Compound (I) from 10 μM, temozolomide from 100 μM, 3-fold, 9 points
smiles,measurement,setting,value
"CC(C)N1CCOc2c(F)cc(-c3nc(Nc4ccc(C5CCN(C)CC5)cn4)ncc3F)cc21 [Compound (I), 5-fluoro-4-(8-fluoro-4-isopropyl-3,4-dihydro-2H-benzo[b][1,4]oxazin-6-yl)-N-(5-(1-methylpiperidin-4-yl)pyridin-2-yl)pyrimidin-2-amine]",GI50,"MOLT-4-luc; 144 h, 6 days incubation, read-out: Absolute GI50",0.2 µM
same,Max (%),MOLT-4-luc; [1],103.5%
same,Min (%),MOLT-4-luc; [1],−18.4%
same,Tumor volume (mean ± SEM),xMDA-MB-361 breast tumor; Day 0,157 ± 11 mm^3
same,Tumor volume (mean ± SEM),xMDA-MB-361 breast tumor; Day 3,202 ± 10 mm^3
same,Tumor volume (mean ± SEM),xMDA-MB-361 breast tumor; Day 7,271 ± 34 mm^3
same,Tumor volume (mean ± SEM),xMDA-MB-361 breast tumor; Day 10,316 ± 43 mm^3
same,Tumor volume (mean ± SEM),xMDA-MB-361 breast tumor; Day 14,342 ± 49 mm^3
same,Tumor volume (mean ± SEM),xMDA-MB-361 breast tumor; Day 17,326 ± 70 mm^3
same,Tumor volume (mean ± SEM),xMDA-MB-361 breast tumor; Day 21,360 ± 84 mm^3
same,Tumor volume (mean ± SEM),xMDA-MB-361 breast tumor; Day 24,429 ± 119 mm^3
same,Tumor volume (mean ± SEM),xMDA-MB-361 breast tumor; Day 28,542 ± 146 mm^3
same,Tumor volume (mean ± SEM),xMDA-MB-361 breast tumor; Day 31,571 ± 150 mm^3
same,Tumor volume (mean ± SEM),xMDA-MB-361 breast tumor; Day 35,587 ± 148 mm^3
same,Tumor volume (mean ± SEM),xMDA-MB-361 breast tumor; Day 38,629 ± 164 mm^3
same,Tumor volume (mean ± SEM),xMDA-MB-361 breast tumor; Day 42,608 ± 145 mm^3
